Reference: the supplement of paper PMC10307832

Columns and labels:
Assay in all cases: relative viability (nuclei count vs DMSO), 5 days (fraction); higher = more cells survive
201T = test system: 201T
Method in brief: (§1)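 Values are medians from duplicate plates. Each reflects relative viability, defined as the nuclei count of treated wells over that of vehicle wells. Lung cancer cell lines in 1536-well plates were pin-tool dosed one day after seeding with one drug alone or with a fixed anchor-drug dose plus five library-drug doses (not always all listed) in √10 steps, then fixed, stained and imaged at 4× after 5 days.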

A-427 = test system: A-427
Method in brief: as §1

ABC-1 = test system: ABC-1
Method in brief: as §1

BEN = test system: BEN
Method in brief: as §1

CAL-12T = test system: CAL-12T
Method in brief: as §1

H3255 = test system: H3255
Method in brief: as §1

LC-2-ad = test system: LC-2-ad
Method in brief: as §1

LCLC-97TM1 = test system: LCLC-97TM1
Method in brief: as §1

NCI-H1650 = test system: NCI-H1650
Method in brief: as §1

NCI-H1651 = test system: NCI-H1651
Method in brief: as §1

NCI-H1792 = test system: NCI-H1792
Method in brief: as §1

NCI-H1915 = test system: NCI-H1915
Method in brief: as §1

NCI-H1944 = test system: NCI-H1944
Method in brief: as §1

NCI-H2023 = test system: NCI-H2023
Method in brief: as §1

NCI-H2087 = test system: NCI-H2087
Method in brief: as §1

NCI-H441 = test system: NCI-H441
Method in brief: as §1

NCI-H460 = test system: NCI-H460
Method in brief: as §1

NCI-H520 = test system: NCI-H520
Method in brief: as §1

NCI-H596 = test system: NCI-H596
Method in brief: as §1

NCI-H650 = test system: NCI-H650
Method in brief: as §1

NCI-H661 = test system: NCI-H661
Method in brief: as §1

NCI-H727 = test system: NCI-H727
Method in brief: as §1

PC-3 [JPC-3] = test system: PC-3 [JPC-3]
Method in brief: as §1

Compound: C=C1C(=O)O[C@@H](CCCCCCCC)[C@@H]1C(=O)O [C-75] + C[C@@H](Oc1cc(-c2cnn(C3CCNCC3)c2)cnc1N)c1c(Cl)ccc(F)c1Cl [Crizotinib] (partner 1 µM)
- relative viability (201T; first compound 0.08 µM): 1.05
- relative viability (201T; first compound 0.253 µM): 1.05
- relative viability (201T; first compound 0.8 µM): 1.01
- relative viability (201T; first compound 2.53 µM): 0.966
- relative viability (201T; first compound 8 µM): 1.05
- relative viability (A-427; first compound 0.08 µM): 0.929
- relative viability (A-427; first compound 0.253 µM): 1.11
- relative viability (A-427; first compound 0.8 µM): 0.883
- relative viability (A-427; first compound 2.53 µM): 0.69
- relative viability (A-427; first compound 8 µM): 0.898
- relative viability (ABC-1; first compound 0.08 µM): 1.29
- relative viability (ABC-1; first compound 0.253 µM): 1.81
- relative viability (ABC-1; first compound 0.8 µM): 0.998
- relative viability (ABC-1; first compound 2.53 µM): 0.909
- relative viability (ABC-1; first compound 8 µM): 0.882
- relative viability (BEN; first compound 0.08 µM): 0.897
- relative viability (BEN; first compound 0.253 µM): 0.952
- relative viability (BEN; first compound 0.8 µM): 0.921
- relative viability (BEN; first compound 2.53 µM): 0.755
- relative viability (BEN; first compound 8 µM): 0.825
- relative viability (CAL-12T; first compound 0.08 µM): 0.597
- relative viability (CAL-12T; first compound 0.253 µM): 0.626
- relative viability (CAL-12T; first compound 0.8 µM): 0.586
- relative viability (CAL-12T; first compound 8 µM): 0.849
- relative viability (H3255; first compound 0.08 µM): 0.909
- relative viability (H3255; first compound 0.253 µM): 0.932
- relative viability (H3255; first compound 0.8 µM): 0.875
- relative viability (H3255; first compound 2.53 µM): 0.841
- relative viability (H3255; first compound 8 µM): 0.843
- relative viability (LC-2-ad; first compound 0.08 µM): 0.467
- relative viability (LC-2-ad; first compound 0.253 µM): 0.467
- relative viability (LC-2-ad; first compound 0.8 µM): 0.369
- relative viability (LC-2-ad; first compound 2.53 µM): 0.446
- relative viability (LC-2-ad; first compound 8 µM): 0.42
- relative viability (LCLC-97TM1; first compound 0.08 µM): 0.274
- relative viability (LCLC-97TM1; first compound 0.253 µM): 0.461
- relative viability (LCLC-97TM1; first compound 0.8 µM): 0.328
- relative viability (LCLC-97TM1; first compound 2.53 µM): 0.253
- relative viability (LCLC-97TM1; first compound 8 µM): 0.29
- relative viability (NCI-H1650; first compound 0.08 µM): 0.961
- relative viability (NCI-H1650; first compound 0.253 µM): 1.1
- relative viability (NCI-H1650; first compound 0.8 µM): 0.972
- relative viability (NCI-H1650; first compound 2.53 µM): 1.12
- relative viability (NCI-H1650; first compound 8 µM): 1.21
- relative viability (NCI-H1651; first compound 0.08 µM): 0.793
- relative viability (NCI-H1651; first compound 0.253 µM): 0.882
- relative viability (NCI-H1651; first compound 0.8 µM): 0.852
- relative viability (NCI-H1651; first compound 2.53 µM): 0.731
- relative viability (NCI-H1651; first compound 8 µM): 0.889
- relative viability (NCI-H1792; first compound 0.08 µM): 1.01
- relative viability (NCI-H1792; first compound 0.253 µM): 0.918
- relative viability (NCI-H1792; first compound 0.8 µM): 0.919
- relative viability (NCI-H1792; first compound 2.53 µM): 0.857
- relative viability (NCI-H1792; first compound 8 µM): 0.879
- relative viability (NCI-H1915; first compound 0.08 µM): 0.924
- relative viability (NCI-H1915; first compound 0.253 µM): 0.914
- relative viability (NCI-H1915; first compound 0.8 µM): 0.879
- relative viability (NCI-H1915; first compound 2.53 µM): 0.819
- relative viability (NCI-H1915; first compound 8 µM): 0.804
- relative viability (NCI-H1944; first compound 0.08 µM): 1.06
- relative viability (NCI-H1944; first compound 0.253 µM): 0.998
- relative viability (NCI-H1944; first compound 0.8 µM): 1.05
- relative viability (NCI-H1944; first compound 8 µM): 1.03
- relative viability (NCI-H2023; first compound 0.08 µM): 0.654
- relative viability (NCI-H2023; first compound 0.253 µM): 0.767
- relative viability (NCI-H2023; first compound 0.8 µM): 0.698
- relative viability (NCI-H2023; first compound 2.53 µM): 0.444
- relative viability (NCI-H2023; first compound 8 µM): 0.626
- relative viability (NCI-H2087; first compound 0.08 µM): 0.942
- relative viability (NCI-H2087; first compound 0.253 µM): 0.563
- relative viability (NCI-H2087; first compound 0.8 µM): 0.837
- relative viability (NCI-H2087; first compound 2.53 µM): 0.608
- relative viability (NCI-H2087; first compound 8 µM): 0.711
- relative viability (NCI-H441; first compound 0.08 µM): 0.857
- relative viability (NCI-H441; first compound 0.253 µM): 0.762
- relative viability (NCI-H441; first compound 0.8 µM): 0.556
- relative viability (NCI-H441; first compound 2.53 µM): 0.46
- relative viability (NCI-H441; first compound 8 µM): 0.585
- relative viability (NCI-H460; first compound 0.08 µM): 0.88
- relative viability (NCI-H460; first compound 0.253 µM): 1.07
- relative viability (NCI-H460; first compound 0.8 µM): 0.696
- relative viability (NCI-H460; first compound 8 µM): 0.696
- relative viability (NCI-H520; first compound 0.08 µM): 0.607
- relative viability (NCI-H520; first compound 0.253 µM): 0.841
- relative viability (NCI-H520; first compound 0.8 µM): 0.673
- relative viability (NCI-H520; first compound 2.53 µM): 0.706
- relative viability (NCI-H520; first compound 8 µM): 0.651
- relative viability (NCI-H596; first compound 0.08 µM): 1.01
- relative viability (NCI-H596; first compound 0.253 µM): 0.937
- relative viability (NCI-H596; first compound 0.8 µM): 0.794
- relative viability (NCI-H596; first compound 2.53 µM): 0.875
- relative viability (NCI-H596; first compound 8 µM): 1.03
- relative viability (NCI-H650; first compound 0.08 µM): 0.679
- relative viability (NCI-H650; first compound 0.253 µM): 0.72
- relative viability (NCI-H650; first compound 0.8 µM): 0.668
- relative viability (NCI-H650; first compound 2.53 µM): 0.597
- relative viability (NCI-H650; first compound 8 µM): 0.729
- relative viability (NCI-H661; first compound 0.08 µM): 1.1
- relative viability (NCI-H661; first compound 0.253 µM): 1.02
- relative viability (NCI-H661; first compound 0.8 µM): 1.04
- relative viability (NCI-H661; first compound 2.53 µM): 0.933
- relative viability (NCI-H661; first compound 8 µM): 1.09
- relative viability (NCI-H727; first compound 0.08 µM): 0.825
- relative viability (NCI-H727; first compound 0.253 µM): 1.2
- relative viability (NCI-H727; first compound 0.8 µM): 0.772
- relative viability (NCI-H727; first compound 2.53 µM): 0.57
- relative viability (NCI-H727; first compound 8 µM): 1.11
- relative viability (PC-3 [JPC-3]; first compound 0.08 µM): 1.01
- relative viability (PC-3 [JPC-3]; first compound 0.253 µM): 0.99
- relative viability (PC-3 [JPC-3]; first compound 0.8 µM): 0.98
- relative viability (PC-3 [JPC-3]; first compound 2.53 µM): 1.05
- relative viability (PC-3 [JPC-3]; first compound 8 µM): 1.14
